Each structure is given as a SMILES string. Some results are limits rather than exact numbers.

From US10420339B2, “Aqueous fungicidal composition and use thereof for combating harmful micro organisms” (BASF SE, priority 2004, dated 2019) come the findings set out here.

Assay [1] concerns Coniophora puteana BAM Ebw. 15. The assay can be described thus: Bravery test (closely based on EN 113) on impregnated wood test specimens, preventive effect against wood-destroying fungi. The assay is classed as cell-based. The note with it: test fungus CP, Pinus spp. (southern yellow pine) specimens 40x15x4 mm, loss in weight after 6 weeks, <3% by weight = satisfactory; for Limits of the effectiveness, with leaching (EN 84): with leaching according to EN 84. As to the method:
(§1) The limits of the effectiveness of the compositions according to the invention with regard to wood-destroying basidiomycetes were determined on wood test specimens of Pinus spp. (southern yellow pine) with the dimensions 40×15×4 mm. The test method on comminuted wood test specimens, known as the Bravery test, is closely based on EN 113 and is used to determine the preventive effect of wood preservatives against wood-destroying fungi (see in this connection A. F. Bravery, Intern. Res. Group Wood Pres., Doc. No. IRG/WP/2113, 5S., Stockholm, 1978). The wood test specimens impregnated with the composition according to the invention were tested without or with the constraint of leaching according to EN 84. […] Coniophora puteana BAM Ebw. 15 and Poria placenta FPRL 280 were used as test fungi. The destruction of the wood caused by fungal infection was registered by the loss in weight of the test woods, which was determined after 6 weeks. […] The concentration limit of the effectiveness is given in two concentrations. […] The limits of the effectiveness are represented in table 4. For comparison, the values determined for a solution of the active substance in acetone are given.

The subject of assay [2] is Poria placenta FPRL 280. Described as above. The assay is classed as cell-based. The note with it: test fungus PP, Pinus spp. (southern yellow pine) specimens 40x15x4 mm, loss in weight after 6 weeks, <3% by weight = satisfactory; for Limits of the effectiveness, with leaching (EN 84): with leaching according to EN 84. As to the method:
as §1

Turning to `CC(C)(C)C(O)(CCc1ccc(Cl)cc1)Cn1cncn1` (centres unmarked) [Solution of tebuconazole, tebuconazole], in assay [1], the “Limits of the effectiveness, with leaching (EN 84)” value (“Limits … (EN 84)” for short) was under 0.054 kg/m^3 and the “Limits of the effectiveness, without leaching” value (from here on “Limits … without leaching”) is given as under 0.052 kg/m^3. Also, in assay [2], the “Limits … (EN 84)” value was 0.095-0.152 kg/m^3 and the “Limits … without leaching” value is 0.102-0.153 kg/m^3.
`Fc1ccc([C@]2(Cn3cncn3)O[C@H]2c2ccccc2Cl)cc1` (racemic) [Solution of epoxiconazole, epoxiconazole]: in assay [1], the “Limits … (EN 84)” value was 0.11-0.16 kg/m^3 and the “Limits … without leaching” value is listed as under 0.19 kg/m^3. Also, in assay [2], the “Limits … (EN 84)” value is reported as 0.11-0.18 kg/m^3 and the “Limits … without leaching” value was under 0.19 kg/m^3.
